Data taken from patent US20210322520A1, “METHODS OF MODULATING CORTICOSTEROID RESPONSE” (priority 2019, published 2021).
Like-named read-outs stand apart in the source and are kept apart here.

Legend:
[1] = Safety analyses (adverse events), phase 1 study; type: in vivo, human
Procedure: All subjects who received at least one dose of the study drug were in the safety population. Safety was assessed via adverse events (AEs), treatment-emergent AEs (TEAEs; events that occurred after the first dose of study drug and through study completion), serious TEAEs (TESAEs), physical examinations, vital signs, 12-lead electrocardiograms (ECGs), and clinical laboratory test findings collected throughout the study.

[2] = Cortisol-equivalent (steroidogenic) exposure of methylprednisolone; type: in vivo, human; details: for plasma free cortisol-equivalent AUEC24SG / plasma total cortisol-equivalent AUEC24SG: 32 mg oral daily, mean; for EmaxSG / AUEC24SG[BA]: mean (SD); for TmaxSG: median (min, max); for AUEC24SG[BA]: baseline-corrected
Procedure: Whole blood samples were drawn from each subject at predefined time points over 24 hours after oral methylprednisolone administration on study Day 1 and Day 4 for determination of plasma total and free methylprednisolone concentrations. All subjects who were in both the PK and PD populations were included in the cortisol-equivalent exposure population.
Because oral methylprednisolone is known to suppress endogenous cortisol production, PD parameters for serum total and plasma free cortisol after administration of methylprednisolone were not calculated. Instead, the cortisol-equivalent (steroidogenic) concentration (CSG) of methylprednisolone was estimated. […] Therefore, a conversion factor of 5 was applied to the methylprednisolone concentration (ConcMPD). The following equation was used to estimate the steroidogenic concentration of methylprednisolone (CSG):
CSG=(5×ConcMPo)+ConcCortisol
CSG was used to estimate the following PD parameters for the steroidogenic concentration of plasma total and free methylprednisolone: maximum observed effect for the steroidogenic concentration (CSG) concentration-time profile (EmaxSG), time of EmaxSG (TmaxSG), and area under the effect curve for the CSG concentration-time profile from time 0 to 24 hours (AUEC24SG). Baseline-corrected AUEC24SG (AUEC24SG[BA]) was calculated by subtracting the baseline (Day-1) cortisol concentrations from the time-matched Day 1 steroidogenic concentration.

[3] = Phase 1 plasma pharmacokinetics in healthy subjects; type: in vivo, human; details: for Cmax / half-life / AUC(0-t): plasma; for RAUC0-24 (accumulation ratio): AUC0-24 Day 4 / Day 1; for time of mean peak plasma concentration: after oral dosing
Procedure: Baseline demographics were collected during the screening period between study Day −28 and Day −3. Subjects remained at the clinic from 2 days before the first dose of study drug (Day-2) until study Day 8.
Serum samples for total cortisol and plasma samples for free cortisol, total methylprednisolone, free methylprednisolone, and ACTH1-24 were analyzed by Syneos Health (Quebec City, Quebec, Canada); plasma samples for N25D porcine ACTH1-39 were analyzed by QPS Netherlands BV (Groningen, Netherlands). Concentrations for all analytes were determined using liquid chromatography-tandem mass spectrometry methods that were validated according to the US FDA Bioanalytical Method Validation Guidance (May 2018). […]
The plasma total and free methylprednisolone were determined using a validated LC-MS/MS method developed by Syneos Health (Quebec City, Quebec, Canada). The LC-MS/MS methods for plasma total and free methylprednisolone were conducted using an Atmospheric Pressure Ionization (API) 5000 mass spectrometer (AB Sciex, Toronto, Canada) with positive electrospray ionization and multiple reaction monitoring (precursor/product ion m/z: 375/161 for methylprednisolone; 381/363 for methylprednisolone-d6, which was included as internal standard). Quantitative analysis was accomplished on an ACE Excel 2 C18-PFP (50×3.0 mm, 2 μm) column. The mobile phases were Milli-Q type water/methanol with ammonium formate and formic acid (in different proportions). The LC was run on isocratic mode followed by a column flush. The calibration range for plasma total methylprednisolone concentration was 0.500 to 500 ng/mL with LLOQ of 0.500 ng/mL. The inter- and intra-run-precision (relative SD) were ≤7%, and 8%, while the intra-run accuracy was 100% to 112%. The calibration range for plasma free cortisol concentration was 200 to […]. The inter- and intra-run-precision (relative SD) were ≤18.5% and 3%, respectively, while the intra-run accuracy was 94% to 101%.
All subjects whose PK profile contained at least 4 consecutive quantifiable concentrations were included in the PK population.
All subjects whose PK profile contained at least 4 consecutive quantifiable plasma concentrations of N25D porcine ACTH1-39, ACTH1-24, or total and free methylprednisolone were in the PK population.
PK parameters were estimated using actual blood collection times by noncompartmental methods using Phoenix® WinNonlin® 8.1. (Certara USA, Inc.). AUC0-24, AUC0-last, and AUC0-inf were calculated using the linear log trapezoidal rule. Kei was calculated using linear regression on the terminal slope of the ln-concentration versus time curve. At least 3 time points (excluding Cmax) and r^2≥0.90 were required to calculate and retain Kel and its associated parameters (t1/2 and AUC0-inf).

[4] = test system: corticosterone levels in rats; assay: Corticosterone levels in rats after RCI or ACTH; type: in vivo, rat
Procedure: Studies were conducted to discover the differences between repository corticotropin injection (RCI) (i.e. Acthar® gel) and synthetic adrenal corticotropin compositions (referred to as ACTH herein) on corticosterone levels in rats.
RCI (10, 40, or 400 IU/kg) or ACTH (0.6, 1.2, or 2.4 mg/kg) was administered to Sprague Dawely rats, plasma samples collected and analyzed for corticosterone.
RCI and ACTH peak corticosterone and area under the curve (AUC) were evaluated.

[5] = free cortisol (steroidogenic concentration), Day 1
[6] = free cortisol (steroidogenic concentration), Day 4
[7] = total cortisol (steroidogenic concentration), Day 1
[8] = total cortisol (steroidogenic concentration), Day 4
[9] = human, oral, 32 mg, plasma free methylprednisolone, Day 1, mean (SD)
[10] = human, oral, 32 mg, plasma free methylprednisolone, Day 4, mean (SD)

## C[C@H]1C[C@@H]2[C@H]([C@@H](O)C[C@@]3(C)[C@H]2CC[C@]3(O)C(=O)CO)[C@@]2(C)C=CC(=O)C=C12 [Methylprednisolone, methylprednisolone]
[1]; TESAE of pulmonary embolism in the synthetic ACTH1-24 depot group
  subjects experiencing TESAEs (in words): no subjects
[1]; n = 16 per group
  AEs: 17 No.
  Any TESAE: 0 No. (%)
  Subjects with any TEAE: 10 (62.5) No. (%)
  TEAE: Contusion: 1 (6.3) No. (%)
  TEAE: Dysuria: 0 No. (%)
  TEAE: Headache: 2 (12.6) No. (%)
  TEAE: Heart palpitations: 2 (12.5) No. (%)
  TEAE: Injection site reaction: 0 No. (%)
  TEAE: Insomnia: 0 No. (%)
  TEAE: Somnolence: 0 No. (%)
  TESAE: Pulmonary embolism: 0 No. (%)
[2]; Day 1
  plasma free cortisol-equivalent AUEC24SG: 572.0 ng·h/mL
  plasma total cortisol-equivalent AUEC24SG: 6480.0 ng·h/mL
[2]; Day 4
  plasma free cortisol-equivalent AUEC24SG: 492.0 ng·h/mL
  plasma total cortisol-equivalent AUEC24SG: 5440.0 ng·h/mL
[2]; [5]
  EmaxSG: 124.0 (37.2) ng/mL
  TmaxSG: 2.0 (1.0, 4.0) h
[2]; [6]
  EmaxSG: 109.0 (26.7) ng/mL
  TmaxSG: 2.0 (1.0, 4.0) h
[2]; free cortisol, Day 1
  AUEC24SG[BA]: 553.0 (187.0) h*ng/mL
[2]; free cortisol, Day 4
  AUEC24SG[BA]: 475.0 (140.0) h*ng/mL
[2]; [7]
  EmaxSG: 1040.0 (251.0) ng/mL
  TmaxSG: 2.0 (2.0, 4.0) h
[2]; [8]
  EmaxSG: 959.0 (188.0) ng/mL
  TmaxSG: 2.0 (1.0, 4.0) h
[2]; total cortisol, Day 1
  AUEC24SG[BA]: 4860.0 (1680.0) h*ng/mL
[2]; total cortisol, Day 4
  AUEC24SG[BA]: 4010.0 (1260.0) h*ng/mL
[3]; both days (Day 1 and Day 4)
  mean exposure of plasma free methylprednisolone as share of plasma total methylprednisolone: about 8%
[3]; [9]
  AUC(0-inf): 0.106 µg·h/mL
  Cmax: 0.0246 µg/mL
  half-life: 1.9 h
[3]; human, oral, 32 mg, plasma total methylprednisolone, Day 1, median (min, max)
  Tmax: 2 h
[3]; human, oral, 32 mg, plasma free methylprednisolone, Day 1, mean (SD), read-out: AUC0-last
  AUC(0-t): 0.104 µg·h/mL
[3]; human, oral, 32 mg, plasma free methylprednisolone, Day 1, n = 1, read-out: AUC0-24
  AUC(0-t): 0.176 µg·h/mL
[3]; [10]
  Cmax: 0.0219 µg/mL
  half-life: 2 h
[3]; human, oral, 32 mg, plasma free methylprednisolone, Day 4, mean (SD), read-out: AUC0-last
  AUC(0-t): 0.0895 µg·h/mL
[3]; human, oral, 32 mg, plasma free methylprednisolone, Day 4, n = 1, read-out: AUC0-24
  AUC(0-t): 0.145 µg·h/mL
[3]; human, oral, 32 mg, plasma total methylprednisolone, Day 1, mean (SD)
  half-life: 2.2 h
[3]; human, oral, 32 mg, plasma total methylprednisolone, Day 4, mean (SD)
  half-life: 2.4 h
[3]; human, oral, 32 mg, plasma total methylprednisolone, Day 4, mean (SD), read-out: AUC0-24
  AUC(0-t): 1.11 µg·h/mL
[3]; human, oral, 32 mg, plasma total methylprednisolone, Day 4, mean (SD), read-out: AUC0-last
  AUC(0-t): 0.919 µg·h/mL
[3]; human, po, 32 mg, plasma total methylprednisolone, 32 mg oral daily, Day 1, mean (SD)
  Cmax: 0.198 µg/mL
[3]; human, po, 32 mg, plasma total methylprednisolone, 32 mg oral daily, Day 4, mean (SD)
  Cmax: 0.188 µg/mL
[3]; human, po, 32 mg, plasma total methylprednisolone, Day 1, mean (SD), read-out: AUC0-24
  AUC(0-t): 1.33 µg·h/mL
[3]; human, po, 32 mg, plasma total methylprednisolone, Day 1, mean (SD), read-out: AUC0-last
  AUC(0-t): 1.02 µg·h/mL
[3]; human, po, 32 mg, plasma total methylprednisolone, Day 1, mean (SD)
  AUC(0-inf): 1.03 µg·h/mL
[3]; plasma free methylprednisolone, n = 1
  RAUC0-24 (accumulation ratio): 0.8 (NA)
[3]; plasma free methylprednisolone, n = 1, listed as methylprednisolone
  RAUC0-24 (accumulation ratio): 0.8
[3]; plasma free methylprednisolone
  time of mean peak plasma concentration: 2 h
[3]; plasma total methylprednisolone, mean (SD)
  RAUC0-24 (accumulation ratio): 0.9 (0.1)
[3]; plasma total methylprednisolone, mean (SD), listed as methylprednisolone
  RAUC0-24 (accumulation ratio): 0.9
[3]; plasma total methylprednisolone
  time of mean peak plasma concentration: around 2 hours

## ACTH
[4]; ACTH 0.6, 1.2, 2.4 mg/kg
  reduction of corticosterone AUC between ACTH doses: no significant reduction
[4]; Sprague Dawely rats, plasma
  dose dependence of corticosterone peak: not dose dependent
[4]; Sprague Dawely rats, plasma, RCI 10, 40, 400 IU/kg, ACTH 0.6, 1.2, 2.4 mg/kg
  time of peak corticosterone: 8 to 24 h
